Reference: paper PMC10746280, “Bacterial efflux pump modulators prevent bacterial growth in macrophages and under broth conditions that mimic the host environment” (mBio, 2023)

Columns and labels:
E. coli AcrB [1] = target: T1, E. coli AcrB (Escherichia coli, UniProt P31224); assay: Isothermal titration calorimetry (ITC) binding to purified AcrB
T1 construct: 4xHis (C); made in house; host or cells: E. coli BL21-Gold (DE3), plasmid derived from pSPORT1
Text: We selected three compounds for further study, CU032, CU232, and CU244, because they incorporated different aspects of the parent structure, specifically the negative atoms on the benzene ring and the amine on opposite side of the molecule. To determine whether the EPMs could bind AcrB, we used purified E. coli AcrB, which is 95% identical to S. enterica Typhimurium AcrB. […] Here, we show with ITC that, like EPM35, the three analogs are capable of specifically interacting with AcrB to form complexes (Fig. S1; Table 1). Curiously, the analogs have KDs that are 25- to 50-fold larger than that of EPM35. […] Thus, the EPM analogs interact specifically with AcrB in a manner consistent with established EPM substrates.
AcrB protein was purified as described ([25]). Briefly, the AcrB protein contains a 4×His tag at the C-terminus and was overproduced in E. coli BL21-Gold (DE3) cells (Stratagene) using the plasmid derived from pSPORT1 (Invitrogen) ([79]). Cells were grown in 6 L of LB medium with 100 µg/mL ampicillin and disrupted with a French pressure cell. The membrane fraction was collected and washed twice with buffer containing 20 mM sodium phosphate (pH 7.2), 2 M KCl, 10% glycerol, 1 mM EDTA, and 1 mM phenylmethanesulfonyl fluoride (PMSF), and once with 20 mM HEPES–NaOH buffer (pH 7.5) containing 1 mM PMSF. The membrane proteins were then solubilized in 1% (wt/vol) n-dodecyl β-D-maltoside (DDM). Insoluble material was removed by ultracentrifugation at 370,000 × g. The extracted protein was purified with Cu^2+-affinity and G-200 sizing columns ([13], [80]). The purified AcrB protein was then concentrated to a final monomeric concentration of 10 µM in buffer containing 20 mM Na-HEPES (pH 7.5) and 0.05% DDM. Similar protein purification procedures were extensively used to elucidate structure-function of RND transporters, including AcrB ([13], [16], [25]), CusA ([81], [82]), MtrD ([83], [84]), CmeB ([85]), AdeB ([86]), HpnN ([87]), and MmpL3 ([88]).
Briefly, measurements were performed on a Microcal iTC200 (Malvern Panalytical) at 25°C. Before titration, the protein was dialyzed against buffer containing 20 mM Na-HEPES (pH 7.5), 0.05% […] (DDM), and 5% DMSO ([18]). The Bradford assay was used to quantify protein concentration, which was adjusted to a final monomeric concentration of 10 µM. Ligand solution consisting of 100 µM EPM in the aforementioned buffer was prepared as the titrant. Both the protein and ligand samples were degassed before loading the samples. Two-microliter injections of the ligand were used for data collection. Injections occurred at intervals of 60 s and lasted for 4 s. Heat transfer (µcal/s) was measured as a function of elapsed time (s). The mean enthalpies measured from injection of the ligand in the buffer were subtracted from raw titration data before data analysis with ORIGIN software (MicroCal). Titration curves fitted with a non-linear regression fitting to the binding isotherm provided the equilibrium binding constant (KA = 1/KD) and enthalpy of binding (ΔH). Based on the values of KA, the change in free energy (ΔG) and entropy (ΔS) were calculated with the equation ΔG = −RT lnKA = ΔH − TΔS, where T is […] and R is 1.9872 cal/K per mol. Calorimetry trials were also carried out in the absence of AcrB using the same experimental conditions.

E. coli AcrB [2] = target: T1, E. coli AcrB; assay: Single-particle cryo-EM of AcrB-EPM complexes in nanodiscs; settings: "binding" protomer of the AcrB trimer; 10 µM EPM
Protocol: To elucidate at high resolution how the EPM analogs interact with AcrB, we used cryo-electron microscopy (cryo-EM). We overproduced and purified the E. coli AcrB protein containing a 6×His tag at the C-terminus and reconstituted the protein into lipidic nanodiscs ([17]). We incubated the AcrB-nanodisc samples with the parent compound or with one of three structurally dissimilar EPMs analogs (CU032, CU232, CU244) to form AcrB-EPM complexes. We then solved single-particle cryo-EM structures of these complexes to resolutions between 2.63 and 2.82 Å (Table 2; Fig. 3).
AcrB was purified from E. coli BL21(DE3)ΔacrB/pSPORTΩacrB cells and reconstituted into lipidic nanodiscs. To assemble AcrB into nanodiscs, a mixture containing 10 µM AcrB, 30 µM membrane scaffold protein (1E3D1), and 900 µM E. coli total extract lipid was incubated for 15 min at room temperature. After, 0.8 mg/mL prewashed Bio-Beads (Bio-Rad) was added. The resultant mixture was incubated for 1 h on ice, followed by overnight incubation at 4°C. The protein-nanodisc solution was filtered through 0.22 µm nitrocellulose filter tubes to remove the Bio-Beads. To separate free nanodiscs from AcrB-loaded nanodiscs, the filtered protein-nanodisc solution was purified using a Superose six column (GE Healthcare) equilibrated with 20 mM Tris-HCl (pH 7.5) and 100 mM NaCl. Fractions corresponding to the size of the trimeric AcrB-nanodisc complex were collected for cryo-EM ([46]). We then incubated 0.6 mg/mL AcrB-nanodisc with 10 µM EPM for 2 h and solved structure of the AcrB-EPM complex using single-particle cryo-EM to a resolution of 2.20 Å.

T1 sequence (P31224 whole entry): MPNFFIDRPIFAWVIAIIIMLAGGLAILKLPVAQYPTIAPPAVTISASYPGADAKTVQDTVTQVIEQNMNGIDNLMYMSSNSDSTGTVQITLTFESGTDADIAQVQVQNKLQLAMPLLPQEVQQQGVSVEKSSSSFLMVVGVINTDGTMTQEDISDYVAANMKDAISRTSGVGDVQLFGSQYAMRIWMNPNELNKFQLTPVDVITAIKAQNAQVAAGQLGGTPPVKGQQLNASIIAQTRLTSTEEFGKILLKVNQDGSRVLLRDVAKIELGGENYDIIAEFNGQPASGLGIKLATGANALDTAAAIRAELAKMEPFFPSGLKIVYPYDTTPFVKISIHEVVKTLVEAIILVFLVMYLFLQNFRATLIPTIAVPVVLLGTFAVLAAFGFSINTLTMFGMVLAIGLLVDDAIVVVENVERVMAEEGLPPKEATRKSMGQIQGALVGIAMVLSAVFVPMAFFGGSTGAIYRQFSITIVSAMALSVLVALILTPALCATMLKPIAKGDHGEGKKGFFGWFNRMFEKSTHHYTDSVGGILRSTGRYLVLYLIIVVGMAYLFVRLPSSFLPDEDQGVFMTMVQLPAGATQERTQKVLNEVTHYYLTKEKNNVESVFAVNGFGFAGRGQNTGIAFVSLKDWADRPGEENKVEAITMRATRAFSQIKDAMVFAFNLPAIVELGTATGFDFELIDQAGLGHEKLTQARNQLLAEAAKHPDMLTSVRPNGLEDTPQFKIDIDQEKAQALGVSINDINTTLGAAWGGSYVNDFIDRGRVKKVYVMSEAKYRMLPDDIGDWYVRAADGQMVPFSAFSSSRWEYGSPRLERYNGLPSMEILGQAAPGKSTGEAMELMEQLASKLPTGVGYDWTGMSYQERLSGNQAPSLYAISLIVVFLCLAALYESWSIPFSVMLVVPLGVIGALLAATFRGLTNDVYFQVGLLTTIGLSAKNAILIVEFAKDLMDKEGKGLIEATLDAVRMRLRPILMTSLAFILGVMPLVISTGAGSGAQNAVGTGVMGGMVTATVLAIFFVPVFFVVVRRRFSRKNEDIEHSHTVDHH

NC1CCN(CC(O)COc2ccc(Cl)c(Cl)c2)C1 (stereo not shown) [CU032]
∆H (E. coli AcrB [1]): −1,947 ± 490 cal/mol
∆S (E. coli AcrB [1]): 15.60 cal/(mol deg)
binding site in AcrB (cryo-EM) (E. coli AcrB [2]): distal drug-binding pocket

NC1CCN(CC(O)COc2cccc(C(F)(F)F)c2)CC1 (stereo not shown) [CU232]
∆H (E. coli AcrB [1]): −2,124 ± 93 cal/mol
∆S (E. coli AcrB [1]): 16.30 cal/(mol deg)
binding site in AcrB (cryo-EM) (E. coli AcrB [2]): distal drug-binding site

OC(CN[C@H]1[C@@H]2CNC[C@@H]21)COc1cc(Cl)cc(Cl)c1 (stereo partly shown) [CU244]
∆H (E. coli AcrB [1]): −8,654 ± 1,384 cal/mol
∆S (E. coli AcrB [1]): −6.91 cal/(mol deg)
binding site in AcrB (cryo-EM) (E. coli AcrB [2]): distal drug-binding site

OC(COc1ccc(Cl)c(Cl)c1)CN1CCC(Nc2nccc(C(F)(F)F)n2)CC1 (stereo not shown) [EPM35]
binding site in AcrB (cryo-EM) (E. coli AcrB [2]): distal drug-binding pocket
